The results in this text go back to ChEMBL document CHEMBL4888484, “Replenishing the malaria drug discovery pipeline: Screening and hit evaluation of the MMV Hit Generation Library 1 (HGL1) against asexual blood stage Plasmodium falciparum ,using a nano luciferase reporter read-out” (2022).

The subject of data set [1] is Plasmodium falciparum. Nature of the data set: Hit confirmation in dose-response curve in NF54 nanoGlo assay, at 72h. Details: timepoint 72 hour. The following applies: Plasmodium falciparum, NF54, Erythrocyte, 72 h. Format: functional, organism-based, Erythrocyte.
The test system of data set [2] is Plasmodium falciparum. Nature of the data set: Hit confirmation in dose-response curve in NF54 pLDH assay, at 72h. The following applies: NF54, Erythrocyte. Details: timepoint 72 hour. Format: functional, organism-based.
Data set [3] relates to Plasmodium falciparum. Nature of the data set: Hit confirmation in dose-response curve in Dd2 pLDH assay, at 72h. Format: functional, organism-based. Details: timepoint 72 hour. The following applies: Dd2, Erythrocyte.
For data set [4], the system named is Plasmodium falciparum. Nature of the data set: Hit confirmation in dose-response curve in NF54 nanoGlo assay, at 12h. The class given is functional, organism-based, Erythrocyte. Details: timepoint 12 hour. As to conditions: Plasmodium falciparum, NF54, Erythrocyte, 12 h.
The nature of data set [5]: Hit confirmation in dose-response curve in HepG2 cytotoxicity assay, at 72h. Format: toxicity, cell-based. Details: timepoint 72 hour. As to conditions: human, HepG2 cells.

Each structure is given as a SMILES string.

Turning to `CC(CC1OCC(C[N+]2(Cc3ccccc3)CCCCC2)O1)CC(C)(C)C` (stereo not given), the IC50 – broadly, the concentration at which inhibition is half-maximal – in data set [1] was 0.912 µM; in data set [2] it was 2.04 µM; in data set [3], 2.51 µM; in data set [4], greater than 10 µM. This compound also came in with an IC50 at 72 h in data set [5] greater than 10 µM.
On to `Cc1cc(N)nc(Nc2ccc(Nc3ccccc3)cc2)n1`, for which the IC50 is 2.24 µM in data set [1], 3.31 µM in data set [2], 5.37 µM in data set [3] and 6.46 µM in data set [4]. The compound also yielded a half-maximal inhibitory concentration (IC50) at 72 h in data set [5] greater than 10 µM.
As to `CCc1ccc(NC(=O)[C@H](C)N2CCC(NS(=O)(=O)c3cccs3)CC2)cc1`, the IC50 in data set [1] was found to be 1.15 µM; in data set [2], 4.17 µM; in data set [3] it was 2.29 µM; in data set [4], 4.79 µM. In addition, the IC50 at 72 h in data set [5] was greater than 10 µM.
As to `O=C(Nc1[nH]c(=O)ncc1F)c1coc(-c2ccccc2)n1`, the IC50 in data set [1] was 0.00589 µM; in data set [2] it was 0.0112 µM; in data set [3], greater than 10 µM; in data set [4] it was greater than 10 µM. Also, the IC50 at 72 h in data set [5] was greater than 10 µM.
Consider `NCc1cccc(C(=O)N2CCc3cc4ccc3[C@@H]2c2cccc(c2)OCCCNC(=O)c2cc(ccc2O)O4)c1`, for which the IC50 stood at 1.51 µM in data set [1], 6.92 µM in data set [2], 3.72 µM in data set [3] and 3.72 µM in data set [4]. In data set [5], the IC50 at 72 h was greater than 10 µM.
Consider `CCOc1cc(C(=O)Nc2ccc3nc4c(c(Nc5ccc(OC)c(OC)c5)c3c2)CCCC4)cc(OCC)c1OCC`, for which the IC50 was found to be 1.38 µM in data set [1], 3.16 µM in data set [2], 1.78 µM in data set [3] and 2.45 µM in data set [4]. In addition, the concentration for half-maximal inhibition (IC50) at 72 h in data set [5] was greater than 10 µM.
For `Cc1cc(=O)c(OCC(=O)N2CCN([C@@H](c3ccccc3)c3ccc(Cl)cc3)CC2)c[nH]1`, in that order: 1.86 µM, 5.01 µM, 3.47 µM, greater than 10 µM and greater than 10 µM.
For `c1ccc(C2=NN(c3ccc(-c4cc(-c5ccccc5)[n+](-c5ccccc5)c(-c5ccccc5)c4)cc3)[C@H](c3ccccc3)C2)cc1`, in that order: 0.631 µM, 1.32 µM, 0.955 µM, 2.19 µM and 4.07 µM.
Regarding `CC(C)C(=O)Nc1ccc(-c2cc(-c3ccc(NC(=O)C(C)C)cc3)nc(-c3ccncc3)n2)cc1`, the IC50 in data set [1] was 4.68 µM; in data set [2], 8.71 µM; in data set [3] it was greater than 10 µM; in data set [4] it was greater than 10 µM. Further, in data set [5], the IC50 at 72 h is greater than 10 µM.
For the compound `O=C(CCc1ccc(Cl)c(C(F)(F)F)c1)N1CC[C@H](N2CCc3ccccc3C2)C1`, the IC50 in data set [1] is 5.5 µM; in data set [2], 5.62 µM; in data set [3] it was 8.32 µM; in data set [4], greater than 10 µM. Further, in data set [5], the IC50 at 72 h is greater than 10 µM.
For `Cc1ccc(CC[C@H]2Nc3ccccc3C(c3ccccc3)(c3ccccc3)O2)o1`, the IC50 amounted to 1.86 µM in data set [1], 3.47 µM in data set [2], 5.37 µM in data set [3] and 9.33 µM in data set [4]. In addition, the IC50 at 72 h in data set [5] was greater than 10 µM.
Consider `CCc1cc(=O)[nH]c(-n2nc(C3CC3)cc2NC(=O)C2CCCCC2)n1`, for which the IC50 in data set [1] is 1.26 µM; in data set [2] it was 4.07 µM; in data set [3], 3.24 µM; in data set [4] it was greater than 10 µM. In data set [5], this compound returned an IC50 at 72 h greater than 10 µM.
Consider `N[C@H]1C[C@H](c2cc(NCCCc3cccnc3)nc(C3CC3)n2)C1`, for which the IC50 in data set [1] amounted to 1.58 µM; in data set [2] it was 2 µM; in data set [3], 2.04 µM; in data set [4], 3.55 µM. Further, the 50% inhibitory concentration (IC50) at 72 h in data set [5] was greater than 10 µM.
For the compound `CC1CCN(Cc2ccc(CNCc3c[nH]nc3-c3ccc(F)cc3)cc2)CC1`, the IC50 is 3.47 µM in data set [1], 6.61 µM in data set [2], 3.55 µM in data set [3] and 7.94 µM in data set [4]. The 50% inhibitory concentration (IC50) at 72 h in data set [5] is greater than 10 µM.
In the case of `O=C(c1ccc2c(c1)OCO2)N1CCn2c1nc1ccccc12`, the IC50 in data set [1] is 1.58 µM; in data set [2] it was greater than 10 µM; in data set [3], greater than 10 µM; in data set [4] it was 0.513 µM. The same compound displayed an IC50 at 72 h in data set [5] greater than 10 µM.
Turning to `O=c1c2ccccc2nc2cc(-c3ccc(O)cc3)c(-c3ccccc3)nn12`, the IC50 in data set [1] is 2.14 µM; in data set [2], greater than 10 µM; in data set [3] it was greater than 10 µM; in data set [4] it was 3.63 µM. For the same compound, the IC50 at 72 h in data set [5] is greater than 10 µM.
Regarding `CC1CCN(c2nccnc2Oc2ccc(C(=O)NCc3ccccc3Cl)cc2)CC1`, the IC50 is 2.45 µM in data set [1], 9.55 µM in data set [2], 6.61 µM in data set [3] and greater than 10 µM in data set [4]. This compound also yielded an IC50 at 72 h in data set [5] greater than 10 µM.
Consider `COc1ccc(CNCCC2C(C)CN(C)C(C)C2Cc2ccccc2)cc1` (stereo not given), for which the IC50 was found to be 1.66 µM in data set [1], 3.63 µM in data set [2], 2.63 µM in data set [3] and 4.07 µM in data set [4]. Also, the IC50 at 72 h in data set [5] was greater than 10 µM.
For `CC(C)c1cc(=O)[nH]c(-n2nc(C3CC3)cc2NC(=O)COc2ccc3ccccc3c2)n1`, in that order: 1.62 µM, 9.33 µM, 8.91 µM, greater than 10 µM and greater than 10 µM.
For the compound `Cc1cccc(CN2CCC[C@H](C(=O)c3ccc4c5c(cccc35)CC4)C2)n1`, the IC50 was 1.66 µM in data set [1], 3.72 µM in data set [2], 5.5 µM in data set [3] and 4.57 µM in data set [4]. The IC50 at 72 h in data set [5] was greater than 10 µM.
With `COc1nc(NC[C@H]2CCCN2C(C)C)ncc1F`, the IC50 was 1.32 µM in data set [1], 1.7 µM in data set [2], greater than 10 µM in data set [3] and greater than 10 µM in data set [4]. For the same compound, in data set [5], the IC50 at 72 h was greater than 10 µM.
As for `O=C(N[C@@H](CN1CCCC1)c1ccccc1)N1CCC(c2ccn[nH]2)CC1`, the IC50 was 3.8 µM in data set [1], 2.24 µM in data set [2], 4.9 µM in data set [3] and greater than 10 µM in data set [4]. Also, in data set [5], the IC50 at 72 h is greater than 10 µM.
Consider `CC(C)C(NC(=O)COc1ccccc1)C(=O)NCC(c1ccccc1Cl)c1c[nH]c2ccccc12` (stereo not given), for which the IC50 was 2.4 µM in data set [1], 9.12 µM in data set [2], 7.76 µM in data set [3] and 3.39 µM in data set [4]. For the same compound, the IC50 at 72 h in data set [5] was greater than 10 µM.
For `CC(C)N1C(=O)NC(=O)C2(Cc3ccccc3N3CCN(Cc4ccccc4)CC32)C1=O` (stereo not given), in that order: 3.98 µM, greater than 10 µM, greater than 10 µM, greater than 10 µM and greater than 10 µM.
Take `Clc1ccc(C[n+]2ccc(-c3nc4ccccc4o3)cc2)c(Cl)c1`: the IC50 in data set [1] is 0.575 µM; in data set [2], 0.603 µM; in data set [3], 0.525 µM; in data set [4], greater than 10 µM. The IC50 at 72 h in data set [5] was greater than 10 µM.
As for `CCCN1CCC(NCc2ccc(-c3cccc(Cl)c3Cl)o2)CC1`, the IC50 in data set [1] was 2.63 µM; in data set [2] it was 3.55 µM; in data set [3] it was 2.63 µM; in data set [4], 7.08 µM. In data set [5], this compound displayed a half-maximal inhibitory concentration (IC50) at 72 h greater than 10 µM.
Consider `COc1ccc(CC(=O)NCCn2c(C(F)(F)F)nc3ccccc32)cc1`, for which the IC50 in data set [1] was 2.57 µM; in data set [2] it was greater than 10 µM; in data set [3] it was greater than 10 µM; in data set [4], 1.62 µM. The compound further gave a half-maximal inhibitory concentration (IC50) at 72 h in data set [5] greater than 10 µM.
